Reference: patent US6620963B1, “TRICYCLO[6.2.202,7]DODECA-2(7),3,5-TRIEN-4-CARBONYLAMINO-PHENYL AND TRICYCLO[6.2.202,7]DODECA-2(7),3,5-TRIEN-4-CARBONYLAMINO-HETEROARYL AND RELATED COMPOUNDS HAVING RARα RECEPTOR SELECTIVE BIOLOGICAL ACTIVITY” (Allergan, Inc., priority 2002, dated 2003)

Tests used:
RARα = target: T1, RARα (Homo sapiens, UniProt P10276); assay: ligand binding assay, RARα; details: RARα receptor subtype; read-out: RAR Kd (nM) α
T1 sequence (P10276 1-462): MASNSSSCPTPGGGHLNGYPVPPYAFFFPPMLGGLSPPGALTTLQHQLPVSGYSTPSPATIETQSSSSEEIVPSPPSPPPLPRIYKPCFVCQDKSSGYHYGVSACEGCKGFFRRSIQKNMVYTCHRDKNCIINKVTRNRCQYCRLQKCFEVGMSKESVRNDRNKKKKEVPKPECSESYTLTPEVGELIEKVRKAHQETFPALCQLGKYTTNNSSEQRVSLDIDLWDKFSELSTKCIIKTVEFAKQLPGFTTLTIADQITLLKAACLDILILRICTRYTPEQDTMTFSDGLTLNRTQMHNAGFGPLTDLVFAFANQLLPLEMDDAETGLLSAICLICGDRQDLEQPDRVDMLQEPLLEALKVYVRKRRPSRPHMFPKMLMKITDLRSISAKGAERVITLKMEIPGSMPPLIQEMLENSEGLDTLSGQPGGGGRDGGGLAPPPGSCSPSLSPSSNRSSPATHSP
Description: (§1) A holoreceptor transactivation assay and a ligand binding assay which measure the antagonist/agonist like activity of the compounds of the invention, or their ability to bind to the several retinoid receptor subtypes, respectively, are described in published PCT Application No. WO WO93/11755 (particularly on pages 30-33 and 37-41) published on Jun. 24, 1993, the specification of which is also incorporated herein by reference. A detailed experimental procedure for holoreceptor transactivations has been described by Heyman et al. Cell 68, 397-406, (1992); Allegretto et al. J. Biol. Chem. 268, 26625-26633, and Mangelsdorf et al. The Retinoids: Biology, Chemistry and Medicine, pp 319-349, Raven Press Ltd., New York, which are expressly incorporated herein by reference. The results obtained in this assay are expressed in EC50 numbers, as they are also in the chimeric receptor transactivation assay. The results of ligand binding assay are expressed in Kd numbers. (See Cheng et al. Biochemical Pharmacology Vol. 22 pp 3099-3108, expressly incorporated herein by reference.)

RARβ = target: T2, RARβ (Homo sapiens, UniProt P10826); assay: ligand binding assay, RARβ; details: RARβ receptor subtype; read-out: RAR Kd (nM) β
T2 sequence (P10826 1-455): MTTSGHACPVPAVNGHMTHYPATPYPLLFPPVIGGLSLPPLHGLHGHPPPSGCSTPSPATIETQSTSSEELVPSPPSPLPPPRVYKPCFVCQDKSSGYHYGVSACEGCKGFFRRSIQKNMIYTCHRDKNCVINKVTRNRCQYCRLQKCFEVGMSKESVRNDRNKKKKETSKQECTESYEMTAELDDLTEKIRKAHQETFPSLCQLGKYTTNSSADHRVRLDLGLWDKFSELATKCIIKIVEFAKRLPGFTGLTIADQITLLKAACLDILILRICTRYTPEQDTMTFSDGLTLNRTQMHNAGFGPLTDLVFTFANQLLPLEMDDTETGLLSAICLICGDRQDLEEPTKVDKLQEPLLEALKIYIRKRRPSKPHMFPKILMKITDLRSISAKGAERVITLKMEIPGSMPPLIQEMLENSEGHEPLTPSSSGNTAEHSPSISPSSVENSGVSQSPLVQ
Description: as §1

RARγ = target: T3, RARγ (Homo sapiens, UniProt P13631); assay: ligand binding assay, RARγ; details: RARγ receptor subtype; read-out: RAR Kd (nM) γ
T3 sequence (P13631 1-454): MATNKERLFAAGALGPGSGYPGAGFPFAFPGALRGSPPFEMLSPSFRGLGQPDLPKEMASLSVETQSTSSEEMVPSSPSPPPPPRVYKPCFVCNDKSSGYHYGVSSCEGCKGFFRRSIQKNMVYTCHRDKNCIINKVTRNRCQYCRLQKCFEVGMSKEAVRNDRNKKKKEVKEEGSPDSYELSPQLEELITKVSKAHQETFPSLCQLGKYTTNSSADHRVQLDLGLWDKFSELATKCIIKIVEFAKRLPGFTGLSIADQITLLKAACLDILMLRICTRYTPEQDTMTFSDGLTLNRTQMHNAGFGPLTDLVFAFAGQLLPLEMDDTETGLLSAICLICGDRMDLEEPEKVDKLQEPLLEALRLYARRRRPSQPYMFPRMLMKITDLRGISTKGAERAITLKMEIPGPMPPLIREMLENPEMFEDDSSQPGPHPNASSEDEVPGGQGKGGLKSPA
Description: as §1

SMILES | Kd (RARα) | Kd (RARβ) | Kd (RARγ)
CC12CCC(C)(CC1)c1cc(C(=O)Nc3ccc(C(=O)O)c(F)c3)c(O)cc12 [Compound 8, 2-Fluoro-4-[(5-hydroxy-1,8-dimethyl-tricyclo[6.2.20^2,7]dodeca-2(7),3,5-trien-4-carbonyl)amino]benzoic Acid] | 53 nM | 7200 nM | > 10000 nM
CC12CCC(C)(CC1)c1c2cc(C(=O)Nc2ccc(C(=O)O)c(F)c2)c(O)c1Br [Compound 10, 4-[(6-Bromo-5-hydroxy-1,8-dimethyl-tricyclo[6.2.20^2,7]dodeca-2(7),3,5-trien-4-carbonyl)amino]-2-fluorobenzoic Acid] | 32 nM | > 10000 nM | > 10000 nM
CC12CCC(C)(CC1)c1c2cc(C(=O)Nc2cc(F)c(C(=O)O)c(F)c2)c(O)c1Br [Compound 14, 4-[(6-Bromo-5-hydroxy-1,8-dimethyl-tricyclo[6.2.20^2,7]dodeca-2(7),3,5-trien-4-carbonyl)amino]-2,6-difluorobenzoic Acid] | 84 nM | > 10000 nM | > 10000 nM
